# From US6218167A, “Stable biocatalysts for ester hydrolysis” (ThermoGen, Inc., priority 1998, dated 2001)
# Experiments:
# [1] = molecular target: T1, Thermus sp. T351 esterase E101, SEQ ID NO.:8 (Thermus filiformis, UniProt A0A0A2WSC9); assay: biochemical; assay type: biochemical
# T1 construct: T351; native about 135 kD
# Description: The specific activity of the enzyme is ten fold greater than observed for E100 with 4-methyl-umbelliferyl butyrate (MUB) as the substrate. E101 is inhibited by PMSF but is insensitive to metal ions or metal ion chelators. […] Table 5 outlines the inhibitory effect of various substances on E101 activity.
# Reaction conditions are those described in the general experimental above
# [2] = tested on: Thermus sp. T351 esterase E100; assay: Inhibition by reaction components of p-nitrophenylproprionate hydrolysis by E100; assay type: biochemical; settings: no concentration stated
# Procedure: Esterase activity is measured by monitoring the hydrolysis of p-nitrophenylproprionate (pNP), or in some cases MUB. Each substrate is dissolved in acetonitrile and added to the reaction mixture (100 μM final concentration) which contain 50 mM Tris HCl pH 8.5 adjusted for temperature dependent pH variation. Reactions are thermally equilibrated at 37° C. for 5 minutes prior to initiation of the reaction by addition of 10 μL of enzyme sample, while control reactions substituted equivalent amounts of BSA. The reaction is monitored spectrophotometrically at 405 nm ε=17 mM^-1 cm^-1 for pNP and 360 nm ε=7.9 mM^-1 cm^-1 for MUB.
# The rates of enzyme catalyzed hydrolysis are corrected for the spontaneous hydrolysis of the substrate. Protein concentrations are determined by either the absorbance at 280 nm or by Lowery assay. Crude activity is determined by a calorimetric assay based on the hydrolysis of 5-bromo-4-chloro-3-indoyl esters suspended in a 0.7% agar matrix on microtiter plates. A 0.1 mg/ml solution of the indolyl derivative is dissolved in a minimal volume of acetonitrile and added to a warm solution of 0.7% agar containing 0.1M phosphate buffer pH 7.5. 10 μL of this solution is distributed to microtiter plates which, when cooled, could be used with as much as 100 μL of enzyme sample and incubated at temperatures from ambient to >65° C. […]
# T1 sequence (A0A0A2WSC9 entry or part of it A175T/N178S/T194S/A197P/K279Q/P281S): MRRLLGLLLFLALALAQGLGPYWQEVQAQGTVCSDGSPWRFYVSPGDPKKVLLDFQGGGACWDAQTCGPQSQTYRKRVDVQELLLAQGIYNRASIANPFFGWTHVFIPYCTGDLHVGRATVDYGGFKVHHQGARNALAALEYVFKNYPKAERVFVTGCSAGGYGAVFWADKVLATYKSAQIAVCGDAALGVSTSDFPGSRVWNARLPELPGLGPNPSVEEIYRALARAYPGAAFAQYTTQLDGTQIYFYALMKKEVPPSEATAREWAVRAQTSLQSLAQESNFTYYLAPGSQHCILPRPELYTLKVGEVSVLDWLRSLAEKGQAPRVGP
compound,measurement,setting,value
OC(CS)C(O)CS (stereo not drawn) [DTT],activity at 1000 µM,[1]; read-out: Relative Rate,98%
O=S(=O)(F)Cc1ccccc1 [PMSF],Relative Rate,"[1]; additive 0.1 mM, None = 100%, substrate p-nitrophenylproprionate",0%
same,Inhibition of E101 (in words),[1]; no concentration stated,inhibited
"OCCS [BME, β-mercaptoethanol]",activity at 10000 µM,[1]; read-out: Relative Rate,96%
Cc1ccc(S(=O)(=O)F)cc1 [tosyl fluoride],Inhibition of E100 (in words),[2],effectively inhibited
O=C(O)CN(CCN(CC(=O)O)CC(=O)O)CC(=O)O [EDTA],activity at 1000 µM,[1]; read-out: Relative Rate,93%
